From the NIST ThermoML archive (doi:10.1021/acs.jced.8b00854)
± gives the expanded uncertainty stated by the source.

Experiments:
[1] = xn = mol fraction of the nth substance listed; settings: 100 kPa, Liquid, Vibrating tube method
[2] = refractive index (Na D-line) (dimensionless); xn = mol fraction of the nth substance listed; settings: 100 kPa, Liquid, Standard Abbe refractometry

CCn1cc[n+](C)c1.F[B-](F)(F)F [1-ethyl-3-methylimidazolium tetrafluoroborate] + O
Settings	mass density, [1] [kg/m3]	refractive index, [2]
293.15 K, x1 = 0.1001	1135.98 ± 2	1.369 ± 0.0017
293.15 K, x1 = 0.2002	1190.68 ± 2	1.3825 ± 0.0016
293.15 K, x1 = 0.3004	1219.59 ± 2	1.3915 ± 0.0016
293.15 K, x1 = 0.4003	1237.8 ± 2	1.398 ± 0.0016
293.15 K, x1 = 0.5009	1251.03 ± 2	1.401 ± 0.0016
293.15 K, x1 = 0.5999	1261.19 ± 2.1	1.4045 ± 0.0017
293.15 K, x1 = 0.7002	1269.24 ± 2.1	1.4065 ± 0.0017
293.15 K, x1 = 0.8004	1275.23 ± 2.2	1.4085 ± 0.0017
293.15 K, x1 = 0.9011	1279.57 ± 2.3	1.4105 ± 0.0017
303.15 K, x1 = 0.1001	1129.7 ± 2	1.367 ± 0.0016
303.15 K, x1 = 0.2002	1183.7 ± 2	1.381 ± 0.0016
303.15 K, x1 = 0.3004	1212.47 ± 2	1.3895 ± 0.0016
303.15 K, x1 = 0.4003	1230.6 ± 2	1.3955 ± 0.0017
303.15 K, x1 = 0.5009	1243.72 ± 2	1.3995 ± 0.0016
303.15 K, x1 = 0.5999	1253.76 ± 2.1	1.402 ± 0.0017
303.15 K, x1 = 0.7002	1261.71 ± 2.1	1.4045 ± 0.0017
303.15 K, x1 = 0.8004	1267.64 ± 2.2	1.407 ± 0.0017
303.15 K, x1 = 0.9011	1271.96 ± 2.3	1.408 ± 0.0017
313.15 K, x1 = 0.1001	1123.34 ± 2	1.3655 ± 0.0016
313.15 K, x1 = 0.2002	1176.44 ± 2	1.379 ± 0.0016
313.15 K, x1 = 0.3004	1204.95 ± 2	1.3875 ± 0.0016
313.15 K, x1 = 0.4003	1223.03 ± 2	1.3935 ± 0.0016
313.15 K, x1 = 0.5009	1236.17 ± 2	1.3975 ± 0.0016
313.15 K, x1 = 0.5999	1246.23 ± 2.1	1.4005 ± 0.0017
313.15 K, x1 = 0.7002	1254.19 ± 2.1	1.4025 ± 0.0017
313.15 K, x1 = 0.8004	1260.1 ± 2.2	1.405 ± 0.0017
313.15 K, x1 = 0.9011	1264.39 ± 2.3	1.4065 ± 0.0017
323.15 K, x1 = 0.1001	1116.34 ± 2	1.364 ± 0.0016
323.15 K, x1 = 0.2002	1169.01 ± 2	1.377 ± 0.0016
323.15 K, x1 = 0.3004	1197.41 ± 2	1.3875 ± 0.0016
323.15 K, x1 = 0.4003	1215.41 ± 2	1.392 ± 0.0016
323.15 K, x1 = 0.5009	1228.52 ± 2	1.3965 ± 0.0016
323.15 K, x1 = 0.5999	1238.61 ± 2.1	1.399 ± 0.0016
323.15 K, x1 = 0.7002	1246.64 ± 2.1	1.401 ± 0.0017
323.15 K, x1 = 0.8004	1252.61 ± 2.2	1.4025 ± 0.0017
323.15 K, x1 = 0.9011	1256.9 ± 2.3	1.4045 ± 0.0017
333.15 K, x1 = 0.1001	1110.02 ± 2	1.362 ± 0.0016
333.15 K, x1 = 0.2002	1161.89 ± 2	1.376 ± 0.0016
333.15 K, x1 = 0.3004	1190.09 ± 2	1.385 ± 0.0016
333.15 K, x1 = 0.4003	1208.03 ± 2	1.391 ± 0.0016
333.15 K, x1 = 0.5009	1221.09 ± 2	1.395 ± 0.0016
333.15 K, x1 = 0.5999	1231.14 ± 2.1	1.398 ± 0.0016
333.15 K, x1 = 0.7002	1239.11 ± 2.1	1.399 ± 0.0017
333.15 K, x1 = 0.8004	1245.05 ± 2.2	1.401 ± 0.0017
333.15 K, x1 = 0.9011	1249.32 ± 2.3	1.4025 ± 0.0017
343.15 K, x1 = 0.1001	1101.5 ± 2	1.3615 ± 0.0018
343.15 K, x1 = 0.2002	1153.47 ± 2	1.376 ± 0.0016
343.15 K, x1 = 0.3004	1181.98 ± 2	1.385 ± 0.0016
343.15 K, x1 = 0.4003	1200.26 ± 2	1.39 ± 0.0016
343.15 K, x1 = 0.5009	1213.58 ± 2	1.3935 ± 0.0016
343.15 K, x1 = 0.5999	1223.61 ± 2.1	1.397 ± 0.0017
343.15 K, x1 = 0.7002	1231.58 ± 2.1	1.3985 ± 0.0017
343.15 K, x1 = 0.8004	1237.51 ± 2.2	1.3995 ± 0.0017
343.15 K, x1 = 0.9011	1241.76 ± 2.3	1.401 ± 0.0017
